Measurements reported in patent US9839632B2, “Methods and compositions using 4-amino-2-(2,6-dioxo-piperidine-3-yl)-isoindoline-1,3-dione for treatment and management of central nervous system cancers” (CELGENE CORPORATION, priority 2013, dated 2017).

What was measured:
Raji B lymphoma cells = assay: Orthotopic murine CNS lymphoma model, Raji (bioluminescence tumor growth, survival); type: in vivo, athymic mice; conditions: for median survival: Raji model; for in vivo tumor growth (luminescence signal) vs control: P<0.05, n=8
Procedure: Animal and housing: Female athymic mice (8-10 weeks old and weighing 20-25 g at the beginning of the study) were purchased from Harlan laboratories. They were housed in a temperature-controlled sterilized room (23±2° C.) with a 12-h light/dark cycle and free access to food and water throughout the study. Animal use was approved by Mayo Foundation Institutional Animal Use and Care Committee and was in accordance with NIH Guide for the Care and Use of Laboratory Animals.
Orthotopic murine CNS lymphoma models: Two murine CNS lymphoma models were created by intracerebral injection of 2.5×10^4 luciferase-transfected Raji or 1×10^5 luciferase-transfected OCI-LY10 B lymphoma cells in athymic mice under anesthesia using a stereotactic platform. Eight-week-old athymic mice underwent minimum 7-day acclimation/quarantine prior to surgery. Surgery was performed in a laminar flow hood under sterile conditions. Tylenol 300 mg/kg PO was given for analgesia 24 hours before the surgery continuing 48 hours postoperatively. Anesthesia was achieved by inhalation of 1-2% isoflurane. After the mouse became well anesthetized, it was placed in the Kopf stereotactic instrument. A small amount of BNP antibiotic cream (a mixture of Bacitracin, Neomycin and Polymyxin) was smeared on its eyes to prevent infection and corneal damage during surgery. A strip of soft fabric was placed over the mouse's body and tail to prevent excessive heat loss during surgery. The scalp area was cleaned with a 2% solution of Betadine and dried with cotton tipped applicator. A midline sagittal incision was made in the scalp. A small burr hole was drilled in the left skull with a surgical drill (Kopf) or a Dremel drill according to the coordinates (AP: 0.5 mm, LM: 2.5 mm) as determined by reference to the mouse brain atlas by Franklin and Paxinos. Paxinos, 2001. The dura mater was surgically exposed, and a 10 μl-Hamilton syringe with a 26S-gauge beveled needle was lowered into the left cerebral hemisphere up to the depth of 3 mm and 5 μl of tumor cells was slowly infused (0.5 μl/min). The needle was left in place for 5 minutes to prevent reflux and then was slowly removed. The skin was closed with wound clips. The mice recovered from anesthesia and surgery in a warm environment and were not returned to their cages until motor activity returned. Cages were placed on top of a heating pad to minimize the loss of body heat during the recovery. The mice were monitored postoperatively at least twice a day for 5 days or until recovery was complete.
Bioluminescence imaging of mouse: After intracerebral injection of lymphoma cells, all the mice were subjected to bioluminesence imaging (“BLI”) twice a week starting at day-4 post-intracerebral injection to monitor the real-time in vivo tumor growth. BLI was conducted using a Xenogen Lumina optical imaging system (Caliper Life Sciences, Hopkinton, Mass.). Mice were anesthetized with isofluorane before intraperitoneal injections of luciferin at a dose of 150 mg/kg, providing a saturating substrate concentration for luciferase enzyme. Peak luminescent signals were recorded 10 minutes after luciferin injection. Regions of interest encompassing the intracranial area of signal were defined using Living Image software (Xenogen), and the total photons/s/steradian/cm^2 was recorded.
In vivo preclinical evaluation of 4-amino-2-(2,6-dioxo-piperidine-3-yl)-isoindoline-1,3-dione in murine CNS lymphoma models: Mice were imaged 4 days after intracerebral injection and were distributed among different treatment groups with equivalent average BLI signal. Real time tumor growth was monitored by BLI. Tumor growth and survival data were analyzed for statistical difference between the groups. Mice were assigned to four experimental groups and one vehicle control group in Raji model. Mice in experimental groups received 4-amino-2-(2,6-dioxo-piperidine-3-yl)-isoindoline-1,3-dione 0.3 mg/kg, 3 mg/kg, 10 mg/kg, or 30 mg/kg by oral gavage daily for 28 days.

[1] = test system: primary murine microglia cells; assay: Polarization of IL4-treated primary murine microglia cells (immunofluorescence); type: cell-based; conditions: IL-4 20 ng/ml 48 hours then 10 ug/ml 48 hours
Procedure: (§1) Treatments: In experiments in which IL-4 was used to induce M2 polarization of macrophages, cells were treated with IL-4 (20 ng/ml) for 48 hours followed by treatment with 4-amino-2-(2,6-dioxo-piperidine-3-yl)-isoindoline-1,3-dione (10 ug/ml) or DMSO control for 48 hours. In triple cell culture experiments with lymphoma cells, macrophages, and NK cells, the treatment was with either DMSO or 4-amino-2-(2,6-dioxo-piperidine-3-yl)-isoindoline-1,3-dione (10 ug/ml) for 48 hours.
(§2) Immunofluorescence for analysis of macrophage polarization in cell culture experiments: Live cells were fixed in 10% formalin for 30 minutes at room temperature followed by permeabilization with PBS-0.2% Triton X-100 for 2 min. After blocking with PBS-5% goat serum-0.02% Triton X-100 for 30 minutes at 37° C., the cells were incubated overnight at 4° C. with rat monoclonal F4/80 antibody (for primary microglia cells, 1:200 Abcam), rat monoclonal CD11b (for U937, 1:200 Biolegend), rabbit polyclonal Ym1 antibody (for primary microglia cells and primary peritoneal macrophages, 1:200, Stemcell Technologies, Vancouver, Canada), rabbit polyclonal FXIII A antibody (for U937, 1:200, Abcam), mouse monoclonal p-STAT1 antibody (1:200, Abcam), rabbit polyclonal p-STAT6 antibody (1:200, Abcam) or rabbit iNOS antibody (1:200, Calbiochem). […]

[2] = test system: primary murine peritoneal macrophages; assay: Polarization of IL4-treated primary murine peritoneal macrophages (immunofluorescence); type: cell-based; conditions: IL-4 20 ng/ml 48 hours then 10 ug/ml 48 hours
Procedure: as §1, §2

SMILES: Nc1cccc2c1C(=O)N(C1CCC(=O)NC1=O)C2=O (stereo not shown) [Pomalidomide, 4-amino-2-(2,6-dioxo-piperidine-3-yl)-isoindoline-1,3-dione]
- body weight vs control group (Raji B lymphoma cells; 3, 10 and 30 mg/kg treatment groups, murine CNS lymphoma model not specified): able to maintain their body weight better than those in control group
- median survival (Raji B lymphoma cells; 0.3 mg/kg oral gavage daily for 28 days): 24 days
- median survival (Raji B lymphoma cells; 3 mg/kg oral gavage daily for 28 days): 28 days
- median survival (Raji B lymphoma cells; 10 mg/kg oral gavage daily for 28 days): 27 days
- median survival (Raji B lymphoma cells; 30 mg/kg oral gavage daily for 28 days): 31 days
- in vivo tumor growth (luminescence signal) vs control (Raji B lymphoma cells; Raji model, 3, 10 and 30 mg/kg groups): significantly slower
- in vivo tumor growth (luminescence signal) vs control (Raji B lymphoma cells; Raji model, 3, 10 and 30 mg/kg groups, listed as 4-amino-2-(2,6-dioxo-piperidine-3-yl)-isoindoline-1,3-dione): reduction of tumor growth
- survival, Kaplan-Meier analysis vs control (Raji B lymphoma cells; Raji model, 3, 10 and 30 mg/kg groups, p<0.05, n=8): prolongation of survival
- polarization status (FXIII A, pSTAT6 vs iNOS, pSTAT1 expression) [1]: from M2 to M1
- polarization status (FXIII A, pSTAT6 vs iNOS, pSTAT1 expression) [2]: from M2 to M1
